The values below come from US4112217A, “Bis-hydrazones of daunomycin and adriamycin” (SRI International, priority 1977, dated 1978).

Each structure is given as a SMILES string. pIC50: −log10 of the molar value. Where a name gives a salt, the structure may show the parent alone. Read-outs that look alike come from different tables or passages of the source.

Assay [1] deals with Cultured L1210 Leukemia Cells. The assay is described as follows: Inhibition of RNA synthesis in cultured lymphoid leukemia L1210 cells. It is filed as cell-based. The following applies: Mus musculus. How it is done: (§1) Biological testing data for compounds of this invention as the HCl salts, as well as for adriamycin and daunomycin, are presented in the table given below. The compounds were tested first in cultured lymphoid leukemia L1210 cells for inhibition of nucleic acid synthesis by previously reported procedures. The analogs were then tested against lymphocytic leukemia P388 implanted in mice, under the auspices of the NCI and according to its protocols which use the increased survival time of treated mice compared to controls as the measure of antitumor efficacy.
(§2) ^b Assay described in G. Tong, W. W. Lee, D. R. Black and D. W. Henry

Assay [2] concerns Cultured L1210 Leukemia Cells. The assay is described as follows: Inhibition of DNA synthesis in cultured lymphoid leukemia L1210 cells. It is filed as cell-based. The following applies: Mus musculus. How it is done: as §1, §2
The test system of assay [3] is P388 Leukemia in Mice. The assay is described as follows: Antitumor efficacy vs lymphocytic leukemia P388 implanted in mice (NCI protocol). It is filed as in vivo, mice (murine). How it is done:
as §1
^c Ip P388 murine leukemia treated ip on QD1-9 and Q4D 5, 9, 13
schedules according to standard NCI protocols. Assay described in R. I.
Geran, N. H. Greenberg, M. M. MacDonald, A. M. Schumacker and B. J.
Abbott, Cancer Chemother. Rep., Part 3, 3 (No. 2), 9 (1972), Protocol
1,200. T/C = ratio of survival time of treated mice to that of untreated
controls times 100. Untreated controls survive about 9 days.

[4] abbreviates: L1210, read-out: Inhibition of Synthesis of RNA, Ed50.
Where [5] appears, read: L1210, read-out: Inhibition of Synthesis of DNA, ED50.
Where [6] appears, read: Mus musculus, ip P388, treated ip, q4d 5,9,13, optimum dose 8 mg/kg, read-out: Antitumor Efficacy T/C.
Setting [7] is: Mus musculus, P388, ip, read-out: Antitumor Efficacy T/C.
Setting [8] is: cultured L1210 leukemia cells, RNA synthesis, read-out: Inhibition of Synthesis of RNA, Ed50.
Setting [9] is: cultured L1210 leukemia cells, DNA synthesis, read-out: Inhibition of Synthesis of DNA, ED50.
Setting [10] is: Mus musculus, P388, ip, ip P388, treated ip, qd 1-9, optimum dose 6.25 mg/kg, read-out: Antitumor Efficacy T/C.
[11] abbreviates: Mus musculus, P388, ip, ip P388, treated ip, q4d 5,9,13, optimum dose 25 mg/kg, read-out: Antitumor Efficacy T/C.

As for `COc1cccc2c1C(=O)c1c(O)c3c(c(O)c1C2=O)C[C@@](O)(C(=O)CO)C[C@@H]3O[C@H]1C[C@H](N)[C@H](O)[C@H](C)O1` [Adriamycin], the values for the pIC50 in assay [1] (setting [4]) and in assay [2] (setting [5]) were 6.17 and 5.82, respectively. The response vs control in vivo at 8 mg/kg in assay [3] (setting [6]) worked out at 157%. For the same compound, the response vs control in vivo at 1 mg/kg in assay [3] (Mus musculus, ip P388, treated ip, qd 1-9, optimum dose 1.0 mg/kg, read-out: Antitumor Efficacy T/C) is 195%.
As to `COc1cccc2c1C(=O)c1c(O)c3c(c(O)c1C2=O)C[C@@](O)(C(C)=O)C[C@@H]3O[C@H]1C[C@H](N)[C@H](O)[C@H](C)O1` [Daunomycin], the pIC50 in assay [1] (setting [4]) is 6.41; in assay [2] (setting [5]), 6.31. Besides, in assay [3] (setting [6]), the response vs control in vivo at 8 mg/kg was determined as 134%. For the same compound, the response vs control in vivo at 0.5 mg/kg in assay [3] (Mus musculus, ip P388, treated ip, qd 1-9, optimum dose 0.5 mg/kg, read-out: Antitumor Efficacy T/C) stood at 166%.
With `COc1cccc2c1C(=O)c1c(O)c3c(c(O)c1C2=O)C[C@@](O)(C(C)=NNC(=O)CCC(=O)NN=C(C)[C@]1(O)Cc2c(O)c4c(c(O)c2[C@@H](O[C@H]2C[C@H](N)[C@H](O)[C@H](C)O2)C1)C(=O)c1c(OC)cccc1C4=O)C[C@@H]3O[C@H]1C[C@H](N)[C@H](O)[C@H](C)O1` [I, Bis(daunomycin) Succinylhydrazone Dihydrochloride], the pIC50 in assay [1] (setting [4]) is 5.47. For the same compound, in assay [2] (setting [5]), the pIC50 is 4.89. Further, in assay [3] (setting [7]), the response vs control in vivo at 6.25 mg/kg is 283%, the response vs control in vivo at 12.5 mg/kg was determined as 307% and the response vs control in vivo at 20 mg/kg came out at 170%. Besides, the “treated mice survived until sacrifice at 30 days” value in assay [3] (qd 1-9, 6.25 mg/kg, sacrifice at 30 days) is “Three out of six”. Moreover, the “treated mice survived until sacrifice at 45 days” value in assay [3] (qd 1-9, 12.5 mg/kg, sacrifice at 45 days) is given as “Two out of six”.
As to `COc1cccc2c1C(=O)c1c(O)c3c(c(O)c1C2=O)C[C@@](O)(C(C)=NNC(=O)CCCC(=O)NN=C(C)[C@]1(O)Cc2c(O)c4c(c(O)c2[C@@H](O[C@H]2C[C@H](N)[C@H](O)[C@H](C)O2)C1)C(=O)c1c(OC)cccc1C4=O)C[C@@H]3O[C@H]1C[C@H](N)[C@H](O)[C@H](C)O1` [II, Bis(daunomycin) Glutarylhydrazone Dihydrochloride], the pIC50 in assay [1] (setting [8]) is 5.44; in assay [2] (setting [9]), 5.35. Besides, in assay [3] (Mus musculus, P388, ip, ip P388, treated ip, qd 1-9, optimum dose 1.56 mg/kg, read-out: Antitumor Efficacy T/C), the response vs control in vivo at 1.56 mg/kg stood at 188%. In assay [3] (Mus musculus, P388, ip, ip P388, treated ip, qd 1-9, optimum dose 3.12 mg/kg, read-out: Antitumor Efficacy T/C), the response vs control in vivo at 3.12 mg/kg amounted to 149%.
On to `COc1cccc2c1C(=O)c1c(O)c3c(c(O)c1C2=O)C[C@@](O)(C(C)=NNC(=O)CCCCC(=O)NN=C(C)[C@]1(O)Cc2c(O)c4c(c(O)c2[C@@H](O[C@H]2C[C@H](N)[C@H](O)[C@H](C)O2)C1)C(=O)c1c(OC)cccc1C4=O)C[C@@H]3O[C@H]1C[C@H](N)[C@H](O)[C@H](C)O1` [III, Bis(daunomycin) Adipylhydrazone Dihydrochloride], for which the results for the pIC50 in assay [1] (setting [8]) and in assay [2] (setting [9]) were 5.44 and 5.05, respectively. Also, the response vs control in vivo at 37.5 mg/kg in assay [3] (Mus musculus, P388, ip, ip P388, treated ip, q4d 5,9,13, optimum dose 37.5 mg/kg, read-out: Antitumor Efficacy T/C) came out at 196%. For the same compound, in assay [3] (setting [10]), the response vs control in vivo at 6.25 mg/kg is 281%.
With `COc1cccc2c1C(=O)c1c(O)c3c(c(O)c1C2=O)C[C@@](O)(C(C)=NNC(=O)CCCCCCC(=O)NN=C(C)[C@]1(O)Cc2c(O)c4c(c(O)c2[C@@H](O[C@H]2C[C@H](N)[C@H](O)[C@H](C)O2)C1)C(=O)c1c(OC)cccc1C4=O)C[C@@H]3O[C@H]1C[C@H](N)[C@H](O)[C@H](C)O1` [IV, Bis(daunomycin) Suberylhydrazone Dihydrochloride], the pIC50 in assay [1] (setting [8]) was 5.62; in assay [2] (setting [9]) it was 5.31. Further, the response vs control in vivo at 25 mg/kg in assay [3] (setting [11]) was determined as 178%. The response vs control in vivo at 8 mg/kg in assay [3] (Mus musculus, P388, ip, ip P388, treated ip, qd 1-9, optimum dose 8 mg/kg, read-out: Antitumor Efficacy T/C) came to 245%.
On to `COc1cccc2c1C(=O)c1c(O)c3c(c(O)c1C2=O)C[C@@](O)(C(C)=NNC(=O)C(=O)NN=C(C)[C@]1(O)Cc2c(O)c4c(c(O)c2[C@@H](O[C@H]2C[C@H](N)[C@H](O)[C@H](C)O2)C1)C(=O)c1c(OC)cccc1C4=O)C[C@@H]3O[C@H]1C[C@H](N)[C@H](O)[C@H](C)O1` [IX, Bis-(Daunomycin) Oxalylhydrazone Dihydrochloride], for which the pIC50 in assay [1] (setting [8]) was 5.64; in assay [2] (setting [9]), 5.37. The response vs control in vivo at 25 mg/kg in assay [3] (setting [11]) was found to be 160%.
Consider `COc1cccc2c1C(=O)c1c(O)c3c(c(O)c1C2=O)C[C@@](O)(C(C)=NNC(=O)CCCCCCCCC(=O)NN=C(C)[C@]1(O)Cc2c(O)c4c(c(O)c2[C@@H](O[C@H]2C[C@H](N)[C@H](O)[C@H](C)O2)C1)C(=O)c1c(OC)cccc1C4=O)C[C@@H]3O[C@H]1C[C@H](N)[C@H](O)[C@H](C)O1` [V, Bis(Daunomycin) Sebacylhydrazone Dihydrochloride], for which the pIC50 in assay [1] (setting [4]) was 6.00; in assay [2] (setting [5]), 5.00. Also, the response vs control in vivo at 12.5 mg/kg in assay [3] (setting [7]) worked out at 221%. The response vs control in vivo at 50 mg/kg in assay [3] (setting [7]) is 163%.
In the case of `COc1cccc2c1C(=O)c1c(O)c3c(c(O)c1C2=O)C[C@@](O)(C(C)=NNC(=O)CCC(=O)NN=C(C)[C@]1(O)Cc2c(O)c4c(c(O)c2[C@@H](O[C@H]2C[C@H](N(C)C)[C@H](O)[C@H](C)O2)C1)C(=O)c1c(OC)cccc1C4=O)C[C@@H]3O[C@H]1C[C@H](N(C)C)[C@H](O)[C@H](C)O1` [VI, Bis(N,N-dimethyldaunomycin) Succinylhydrazone Dihydrochloride], the values for the pIC50 in assay [1] (setting [8]) and in assay [2] (setting [9]) were 5.52 and 4.72, respectively. Also, in assay [3] (setting [11]), the response vs control in vivo at 25 mg/kg amounted to 158%. Moreover, the response vs control in vivo at 4 mg/kg in assay [3] (Mus musculus, P388, ip, ip P388, treated ip, qd 1-9, optimum dose 4 mg/kg, read-out: Antitumor Efficacy T/C) was 178%.
For the compound `COc1cccc2c1C(=O)c1c(O)c3c(c(O)c1C2=O)C[C@@](O)(C(CO)=NNC(=O)CCC(=O)NN=C(CO)[C@]1(O)Cc2c(O)c4c(c(O)c2[C@@H](O[C@H]2C[C@H](N)[C@H](O)[C@H](C)O2)C1)C(=O)c1c(OC)cccc1C4=O)C[C@@H]3O[C@H]1C[C@H](N)[C@H](O)[C@H](C)O1` [VII, Bis(adriamycin) Succinylhydrazone Dihydrochloride], the pIC50 in assay [1] (setting [8]) is 5.51; in assay [2] (setting [9]), 4.88. For the same compound, the response vs control in vivo at 18.8 mg/kg in assay [3] (Mus musculus, P388, ip, ip P388, treated ip, q4d 5,9,13, optimum dose 18.8 mg/kg, read-out: Antitumor Efficacy T/C) came out at 160%. In assay [3] (setting [10]), the response vs control in vivo at 6.25 mg/kg was 309%.
Regarding `COc1cccc2c1C(=O)c1c(O)c3c(c(O)c1C2=O)C[C@@](O)(C(C)=NNC(=O)CC(=O)NN=C(C)[C@]1(O)Cc2c(O)c4c(c(O)c2[C@@H](O[C@H]2C[C@H](N)[C@H](O)[C@H](C)O2)C1)C(=O)c1c(OC)cccc1C4=O)C[C@@H]3O[C@H]1C[C@H](N)[C@H](O)[C@H](C)O1` [VIII, Bis(daunomycin) Malonylhydrazone Dihydrochloride], the pIC50 in assay [1] (setting [8]) is 5.13; in assay [2] (setting [9]) it was 4.85. For the same compound, the response vs control in vivo at 6.25 mg/kg in assay [3] (setting [10]) was 169%. Besides, the “Antitumor Efficacy (in words)” value in assay [3] (ip P388, treated ip, q4d 5,9,13, dose not given) is “inactive”.
Regarding `COc1cccc2c1C(=O)c1c(O)c3c(c(O)c1C2=O)C[C@@](O)(C(C)=NNC(=O)CCCCCC(=O)NN=C(C)[C@]1(O)Cc2c(O)c4c(c(O)c2[C@@H](O[C@H]2C[C@H](N)[C@H](O)[C@H](C)O2)C1)C(=O)c1c(OC)cccc1C4=O)C[C@@H]3O[C@H]1C[C@H](N)[C@H](O)[C@H](C)O1` [X, Bis-(daunomycin) Pimelylhydrazone Dihydrochloride], the pIC50 in assay [1] (setting [4]) was 5.89; in assay [2] (setting [5]), 5.70. The response vs control in vivo at 25 mg/kg in assay [3] (setting [7]) stood at 160%.
